Results published in the supplement of paper PMC4932681.

What was measured:
BT-474 Tam1 [1] = experiment: drug sensitivity score (DSS) (DSS (dimensionless)); higher = more sensitive; extreme values may be limits of the assay; details: 4-OH-tamoxifen in medium 1 µM; 72 h
Outline: (§1)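 Breast cancer cell lines and their resistant derivatives were seeded into 384-well plates holding FO2Baq library drugs at five concentrations spanning a 10 000-fold range. Resistant lines were in medium with 1 μM of the selecting drug. Cells were incubated 72 h at 37 °C, and CellTiter-Glo viability was read on a PHERAstar and normalised to vehicle-only and positive controls. Drug sensitivity score, relative IC50 (curve midpoint) and top-dose inhibition came from logistic dose–response fits (Breeze pipeline).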

BT-474 Tam2 [2] = experiment: as above; details: 4-OH-tamoxifen in medium 1 µM; 72 h
Outline: as §1

BT-474 [3] = experiment: as above; details: 72 h
Outline: as §1

MCF-7 Tam1 = experiment: as above; details: 4-OH-tamoxifen in medium 1 µM; 72 h
Outline: as §1

MCF-7 [4] = experiment: as above; details: 72 h
Outline: as §1

T-47D Tam1 [5] = experiment: as above; details: 4-OH-tamoxifen in medium 1 µM; 72 h
Outline: as §1

T-47D Tam2 [6] = experiment: as above; details: 4-OH-tamoxifen in medium 1 µM; 72 h
Outline: as §1

T-47D [7] = experiment: as above; details: 72 h
Outline: as §1

ZR-75-1 Tam1 [8] = experiment: as above; details: 4-OH-tamoxifen in medium 1 µM; 72 h
Outline: as §1

ZR-75-1 Tam2 [9] = experiment: as above; details: 4-OH-tamoxifen in medium 1 µM; 72 h
Outline: as §1

ZR-75-1 [10] = experiment: as above; details: 72 h
Outline: as §1

BT-474 Tam1 [11] = experiment: relative IC50 (midpoint of fitted logistic curve, plateau may be below 50% inhibition; CellTiter-Glo viability); higher = less potent; details: 4-OH-tamoxifen in medium 1 µM; 72 h
Outline: as §1

BT-474 [12] = experiment: as above; details: 72 h
Outline: as §1

MCF-7 [13] = experiment: as above; details: 72 h
Outline: as §1

T-47D Tam1 [14] = experiment: as above; details: 4-OH-tamoxifen in medium 1 µM; 72 h
Outline: as §1

T-47D Tam2 [15] = experiment: as above; details: 4-OH-tamoxifen in medium 1 µM; 72 h
Outline: as §1

T-47D [16] = experiment: as above; details: 72 h
Outline: as §1

ZR-75-1 Tam1 [17] = experiment: as above; details: 4-OH-tamoxifen in medium 1 µM; 72 h
Outline: as §1

ZR-75-1 Tam2 [18] = experiment: as above; details: 4-OH-tamoxifen in medium 1 µM; 72 h
Outline: as §1

ZR-75-1 [19] = experiment: as above; details: 72 h
Outline: as §1

BT-474 Tam2 [20] = experiment: as above; details: 4-OH-tamoxifen in medium 1 µM; 72 h
Outline: as §1

Row | Structure (SMILES) | drug sensitivity score (BT-474 Tam1 [1]) | drug sensitivity score (BT-474 Tam2 [2]) | drug sensitivity score (BT-474 [3]; 4-OH-tamoxifen in medium 0 µM) | drug sensitivity score (BT-474 [3]; 4-OH-tamoxifen in medium 1 µM) | drug sensitivity score (MCF-7 Tam1) | drug sensitivity score (MCF-7 [4]; 4-OH-tamoxifen in medium 0 µM) | drug sensitivity score (MCF-7 [4]; 4-OH-tamoxifen in medium 1 µM) | drug sensitivity score (T-47D Tam1 [5]) | drug sensitivity score (T-47D Tam2 [6]) | drug sensitivity score (T-47D [7]; 4-OH-tamoxifen in medium 0 µM) | drug sensitivity score (T-47D [7]; 4-OH-tamoxifen in medium 1 µM) | drug sensitivity score (ZR-75-1 Tam1 [8]) | drug sensitivity score (ZR-75-1 Tam2 [9]) | drug sensitivity score (ZR-75-1 [10]; 4-OH-tamoxifen in medium 0 µM) | drug sensitivity score (ZR-75-1 [10]; 4-OH-tamoxifen in medium 1 µM) | relative IC50 (BT-474 Tam1 [11]) [nM] | relative IC50 (BT-474 [12]; 4-OH-tamoxifen in medium 1 µM) [nM] | relative IC50 (MCF-7 [13]; 4-OH-tamoxifen in medium 0 µM) [nM] | relative IC50 (MCF-7 [13]; 4-OH-tamoxifen in medium 1 µM) [nM] | relative IC50 (T-47D Tam1 [14]) [nM] | relative IC50 (T-47D Tam2 [15]) [nM] | relative IC50 (T-47D [16]; 4-OH-tamoxifen in medium 0 µM) [nM] | relative IC50 (T-47D [16]; 4-OH-tamoxifen in medium 1 µM) [nM] | relative IC50 (ZR-75-1 Tam1 [17]) [nM] | relative IC50 (ZR-75-1 Tam2 [18]) [nM] | relative IC50 (ZR-75-1 [19]; 4-OH-tamoxifen in medium 0 µM) [nM] | relative IC50 (ZR-75-1 [19]; 4-OH-tamoxifen in medium 1 µM) [nM] | relative IC50 (BT-474 [12]; 4-OH-tamoxifen in medium 0 µM) [nM] | relative IC50 (BT-474 Tam2 [20]) [nM]
1 | NC1(c2ccc(-c3nc4ccn5c(=O)[nH]nc5c4cc3-c3ccccc3)cc2)CCC1 [MK-2206] | 4.04 | 0.553 | 1.68 | 2.54 | 2.56 | 1.67 | 4.73 | 5.11 | 5.54 | 5.76 | 2.9 | 7.57 | 7.96 | 6.86 | 7.22 | 170 | 335 | 315 | 119 | 101 | 111 | 114 | 177 | 68.5 | 78.2 | 73.6 | 54.6 | – | –
2 | Nc1nc2[nH]cnc2c(=S)[nH]1 [Thioguanine] | 0.758 | 0.61 | 0.0001 | 1.03 | 1.96 | 4.8 | 4.57 | 2.75 | 2.48 | 1.83 | 0.681 | 3.48 | 2.86 | 4.81 | 1.76 | – | – | 1750 | 1350 | 3070 | 2660 | 3040 | – | 1420 | 1440 | 1080 | 2690 | – | –
3 | OC[C@H]1O[C@@H](n2cnc3c2N=CNC[C@H]3O)C[C@@H]1O [Pentostatin] | 1.97 | 0.106 | 0.324 | 0.0318 | 0.721 | 4.26 | 2.79 | 4.83 | 3.19 | 3.58 | 2.45 | 2.62 | 3.72 | 4.39 | 3.83 | 2110 | – | 1540 | 1320 | 1320 | 1450 | 1900 | – | 2930 | 1310 | 1580 | 1140 | – | –
4 | CCS(=O)(=O)c1cccc(-c2cc(C(=O)NC3CCN(C)CC3)c(C)c3[nH]c4ncc(C)cc4c23)c1 [TAK-901] | 1.12 | 2.87 | 0 | 3.36 | 0 | 0.354 | 2.84 | 6.67 | 2.96 | 3.25 | 0.53 | 0 | 0 | 0 | 0 | 371 | 90.5 | – | – | 138 | 93.3 | 182 | – | > 1000 | > 1000 | > 1000 | > 1000 | > 1000 | –
5 | COc1cc(Nc2ncc3c(n2)-c2ccc(Cl)cc2C(c2c(F)cccc2OC)=NC3)ccc1C(=O)O [Alisertib (MLN8237)] | 0.0274 | 0 | 0.464 | 1.48 | 0.522 | 0.284 | 0 | 3.59 | 4.18 | 3.12 | 0.856 | 0 | 0 | 0 | 0 | – | 3450 | – | – | 1050 | 821 | – | – | > 10000 | > 10000 | > 10000 | – | – | > 10000
6 | O=C(NC[C@H](O)CO)c1ccncc1Nc1ccc(I)cc1F | 0.041 | 0 | 0.702 | 3.92 | 0.0844 | 1.94 | 1.22 | 0 | 2.47 | 0 | 0 | 0 | 0 | 0 | 0 | – | 1850 | 2770 | – | > 10000 | 1940 | – | > 10000 | > 10000 | > 10000 | > 10000 | – | – | > 10000
7 | CC[C@]1(O)C[C@H]2CN(CCc3c([nH]c4ccccc34)[C@@](C(=O)OC)(c3cc4c(cc3OC)N(C=O)[C@H]3[C@@](O)(C(=O)OC)[C@H](OC(C)=O)[C@]5(CC)C=CCN6CC[C@]43[C@@H]65)C2)C1 [Vincristine] | 30.7 | 30.8 | 21.4 | 31.3 | 0.209 | 19.1 | 16.8 | 19.3 | 17.3 | 13.8 | 6.49 | 7.19 | 8.05 | 17.3 | 10.9 | 20.9 | 11.9 | 24.9 | 26.5 | 38.5 | 26.8 | 4.41 | 88.1 | – | 116 | 3.69 | 21.5 | 2.33 | 14.2
8 | CS(=O)(=O)c1ccc(C(=O)Nc2ccc(Cl)c(-c3ccccn3)c2)c(Cl)c1 [Vismodegib] | 0.264 | 0 | 0 | 0 | 0 | 0 | 0 | 0 | 0 | 0 | 0 | 0 | 0 | 0 | 0 | – | > 10000 | > 10000 | > 10000 | > 10000 | > 10000 | > 10000 | > 10000 | > 10000 | – | > 10000 | > 10000 | > 10000 | > 10000
